Test system: whole blood from TB-reactor and BCG-vaccinated animals (IFN-γ response)
Format: cell-based, cattle

Substance | recognition in TB-reactor animals not responding to peptides #42 or #55 | other results
LGRNFQVIYEQANAHGQKVQ [peptide #33] | recognised in TB-reactor animals that failed to respond to peptides #42 or #55 | –
SAELPDWLAANRGLAPGGHA [peptide #64] | recognised in TB-reactor animals that failed to respond to peptides #42 or #55 | immunogenicity in BCG-vaccinated animals on re-screen of Sec#1 components: immunogenic in some BCG-vaccinated animals
RDVLAAGDFWGGAGSVACQE [peptide #42] | – | responder frequency, TB-reactor animals: 50%
Staphylococcal enterotoxin B [SEB, reference compound] | – | IFN-γ response in TB-reactor and BCG-vaccinated animals: all TB-reactor and BCG-vaccinated animals responded
QANLGEAAGTYVAADAAAAS [peptide #55] | – | responder frequency, TB-reactor animals: 36%
EAEHQAIIRDVLTASDFWGG [compound 29] | recognised in TB-reactor animals that failed to respond to peptides #42 or #55 | –
RNIVNMLHGVRDGLVRDANN [compound 20] | recognised in TB-reactor animals that failed to respond to peptides #42 or #55 | –
